A short description of this experiment: Energy intake and weight loss rodent study, preloads before high fat diet (Experiment 2). The note with it: mice on high fat diet, daily preload one hour before diet. It counts as in vivo. From the text: Fifteen adult female feeder mice were preconditioned for 15 days on a […]. PicoLab Rodent diet 20 was supplemented to […] by adding a mixture of fats consisting of (38% butter, 30% shortening, 23% lard, and 8% canola oil). High fat diet was provided ad libitum. After the pre-conditioning period mice were assigned to one of four groups ([…]) to generate similar mean body weights between groups as described below. Mice were given control or test article preloads one hour prior to receiving ad libitum high fat diet on a daily basis, mice received high fat diet at ad libitum over night (rodent active period of the day) and were fasted during day time hours (the rodent dormant period of the day). Body weights were obtained on Day 15 and Day 30 post treatment initiation and data was used to calculate change in body weight from baseline, Day 0. Mean body weights (FIG. 1) and % change in body weight (FIG. 2) data is provided with corresponding SEM. Partially hydrolyzed collagen (GEL group) test article was hydrated in 10× in hot water then allowed to set to firm gel 4-8° C. overnight. Wheat Flour (FLOU group) and Psyllium (PSY group) test articles were hydrated in water. Wheat Flour was cooked via microwave for 2 min at an 800 Watt setting.

Each structure is given as a SMILES string.

Take `CCCCCCCCCCC[C@@H](C[C@@H]1OC(=O)[C@H]1CCCCCC)OC(=O)[C@H](CC(C)C)NC=O` [ALLI, Orlistat]: the “Body weight change over a 30 day treatment period (FIG. 1, FIG. 2)” value is given as “weight loss”.

The values are drawn from patent US20160242450A1, “Functional-gel Compositions and Methods” (priority 2014, published 2016).
